Ends that are not written are not given here.
Details: pH 5

| Sequence | Kp (lipid/water partition coefficient) |
| --- | --- |
| GLFAAIAAFIEGGWTAMIDAWYGS [G4AG8AG16AG20A] | 333 |
| GLFGAIAGFIEAAWTGMIDGWYGS [G12AG13A] | 442 |
| GLFGAIAGFIEGGATGMIDGWYGS [W14A] | 6265 |
| GLFGAIAGFIEGGWTGMIDGWYGS [WT, reference compound] | 10455 |
